Data on 1 molecule can be found in patent US4912116A, “Propiophenone derivatives for treatment of pollakiuria (frequency urination)” (Hokuriku Pharmaceutical Co., Ltd., priority 1986, dated 1990).

Structures are written as SMILES.

For this test, the system named is micturition reflex (rhythmic bladder contractions). Nature of the test: Inhibition of micturition reflex (rhythmic bladder contractions) in unanesthetized, gallamine-immobilized rats. As to conditions: for Disappearance time (of bladder contractions): i.v., 4 rats, mean ± S.E., saline 9.0 ± 1.8; for Inhibition Rate: i.d., 15 min after administration, 0.5% CMC 11.9 ± 7.9. It is filed as in vivo, Male Wister rats. The method, then: statistical analysis: Each data of Experiment 1-6 represents the mean±S.E. statistical analysis of the data was performed using student's t-test.
Male Wister rats weighing about 300 g (in case of intraduodenal administration, fasted more than 15 hours) were anesthetized with ether and immobilized with gallamine (5 mg/kg, i.v.) and fixed on their back. As soon as that procedure was finished anesthesia was discontinuted.
In the experiment, infusion of gallamine, 13 mg/kg/hr, i.v. (in case of intraduodenum administration, 10 mg/kg/hr, i.v.) was continuted, and artificial respiration was performed (90 times/min, 3 ml air/time).
Then, through a midline incision of the abdomen, the urinary bladder was exposed; a small incision provided therein, and a balloon (capacity about 1 ml) was inserted into the bladder dome.
The balloon was connected to a pressure transducer and variations of inside pressure were recorded on a recorder.
Micturition reflex was elicited by raising the balloon pressure 10-20 cm H2 O.
In case of intravenous administration, the drug was administrated through a cannula inserted into the left jugular vein, and in case of intraduodenal administration the drug was administrated through a cannula inserted into the duodenum from outside the stomach.
In case of intravenous administration, the effect of the drug was represented by the disappearance time of bladder contractions caused by micturition reflex.
In case of intraduodenal administration, the sum total of amplitude of bladder contractions caused by micturition reflex was calculated during each five minutes at 5 min before and 15, 30, 45, 60, 75, 90, 105 and 120 min after the administration.
Then, inhibition rate was calculated by the sum total of amplitude of bladder contractions at each point compared with that before the administration.

For the molecule `CCc1ccc(C(=O)C(C)CN2CCCC2)cc1` (centres unmarked) [Compound 1], the “Disappearance time (of bladder contractions)” value (4 mg/kg) came out at 52.8 ± 23.4 min and the “Disappearance time (of bladder contractions)” value (8 mg/kg, * p < 0.05 vs control) was found to be 249.0 ± 45.0 min. The “Inhibition Rate” value amounted to 36.1 ± 4.4% (12.5 mg/kg, * p < 0.05); 53.8 ± 6.9% (25 mg/kg, ** p < 0.01); 87.9 ± 5.1% (50 mg/kg, ** p < 0.01).
